Tests used:
E. coli ATCC 25922 = assay: MIC, E. coli ATCC 25922; format: cell-based
Description: (§1) The MIC assays are carried out in 150 μL volume in duplicate in 96-well clear flat-bottom plates. The bacterial suspension from an overnight culture growth in appropriate medium is added to a solution of test compound in 4% DMSO in water. Final bacterial inoculum is approximately 10^5-10^6 CFU/well. […] Both ampicillin and tetracycline are used as antibiotic-positive controls in each screening assay for S. pyogenes, E. coli imp-, E. coli, S. aureus, E. faecalis, K. pneumoniae and P. vulgaris. Ciprofloxacin is used as an antibiotic positive control in each screening assay for P. aeruginosa.
(§2) The following compounds were prepared using methods illustrated in the previous examples. The compounds were also examined in standard bacterial assays against E. Coli, S. Aureus, P. aurginosa, K. pneumoniae, P. vulgaris, and A. baumannii to determine activities. Each of the bacterial cultures that are available from ATCC (www.atcc.org) is identified by its ATCC number. A. baumannii is gentamicin sensitive Acinetobacter baumannii #2 from Walter Reed.

S. aureus ATCC 13709 = assay: MIC, S. aureus ATCC 13709; format: cell-based
Description: as §1, §2

P. aurginosa ATCC 25416 = assay: MIC, P. aurginosa ATCC 25416; format: cell-based
Description: as §1, §2

P. aurginosa ATCC 29248 = assay: MIC, P. aurginosa ATCC 29248; format: cell-based
Description: as §1, §2

K. pneumoniae ATCC 10031 = assay: MIC, K. pneumoniae ATCC 10031; format: cell-based
Description: as §1, §2

P. vulgaris ATCC 8427 = assay: MIC, P. vulgaris ATCC 8427; format: cell-based
Description: as §1, §2

[1] = system: gentamicin sensitive Acinetobacter baumannii #2 from Walter Reed; assay: MIC, A. baumannii WReed 2; format: cell-based
Description: as §1, §2

[2] = biological target: 18S ribosomal subunit RNA target; assay: Mass spectrometry based binding assay (FTICR), 18S; settings: Example 108
Description: (§3) In a typical experiment, 10 μL of an aqueous solution containing 100 mM ammonium acetate buffer, 2.5 or 5 μM of each RNA, and 33% isopropyl alcohol (to aid ion desolvation) was prepared with different concentrations of each ligand or ligand mixture Samples were introduced into the electrospray ionization source (negative ionization mode) at 1 μL/min and ions were stored for 1 sec in an RF-only hexapole following desolvation. The abundances were integrated from the respective ions for free RNA and the ligand-RNA complex. The primary (1:1 RNA:ligand) and secondary (1:2 complex, if observed). […] The peak ratios were measured at each concentration, then a plot of complex/free RNA versus concentration of ligand added was fitted to a second (or higher) order binding polynomial to determine the KD.

[3] = biological target: 16S ribosomal subunit RNA target; assay: Mass spectrometry based binding assay (FTICR), 16S; settings: Example 108
Description: as §3, with “[…],” for “2.5 or 5 μM of each RNA,”

[4] = system: E. coli S30 bacterial extract (pBestLuc firefly luciferase reporter); assay: Coupled bacterial transcription/translation assay; format: biochemical; settings: Example 108; read-out: Trans/Trans IC50
Description: The DNA template, pBestLuc™ (Promega), is a plasmid containing a reporter gene for firefly luciferase fused to a strong tac promoter and ribosome binding site. Messenger RNA from 1 μg pBestLuc is transcribed and translated in E. coli S30 bacterial extract in the presence or absence of test compound. Compounds are tested in a black 96 well microtiter plate with an assay volume of 35 μL. […] The transcription/translation reaction is incubated for 35 minutes at 37° C. followed by detection of functional luciferase with the addition of 30 μL LucLite™ (Packard). Light output is quantitated on a Packard TopCount.

E. Coli = assay: MIC, E. Coli; format: cell-based
Method in brief: (§4)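 Broth microdilution in duplicate, 150 μL: overnight-culture bacteria were added to compound in 4% DMSO in water. Final inoculum was about 10^5–10^6 CFU/well.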

S. Aureus = assay: MIC, S. Aureus; format: cell-based
Method in brief: as §4

[5] = system: Staphylococcus aureus (Smith Strain ATCC 13709); assay: Staphylococcus aureus mouse protection assay; format: in vivo, mice; settings: Staph Conc. 10^6, 10% Mucin, the 13th table
Description: Two of the novel aminoglycoside compounds of the invention were examined for their anitbacterial activity against staphylococcus aureus. Mice were fed with autoclaved commercial food pellets and sterile water ad libitum. Animals were inoculated intraperitoneally with 0.5 mL/mouse of the indicated concentration of S. aureus (ATCC 13709) containing 10% mucin. There were 10 mice in each treatment group and compounds were administered subcutaneously one and 3 hour after infection. Compounds 15a (R4═R5═CH3) and 15j (R4═H, R5═(CH2)2C6H5)) were used at 75 mg/kg, 37.5 mg/kg, 18.8 mg/kg, 9.4 mg/kg, 4.7 mg/kg, 2.3 mg/kg, 1.17 mg/kg and 0.5 mg/kg. Amakacin, paromomycin and neomycin were used as the positive controls at concentrations of 2 mg/kg, 1 mg/kg and 0.5 mg/kg.
Test compound was administered as an aqueous buffer solution (phosphate buffered saline (PBS), pH=7.4).

## NCC1OC(OC2C(CO)OC(OC3C(O)C(N)CC(N)C3OC3OC(CO)C(O)C(O)C3N)C2OCCNCCN2C(=O)c3cccc4cccc(c34)C2=O)C(N)C(O)C1O (stereo not shown) [Compound 9ae]
E. coli ATCC 25922; Example 110
  MIC E. coli ATCC 25922: >40 µM
S. aureus ATCC 13709; Example 110
  MIC S. aureus ATCC 13709: 10 to 20 µM
P. aurginosa ATCC 25416; Example 110
  MIC P. aurginosa ATCC 25416: 5 to 10 µM
P. aurginosa ATCC 29248; Example 110
  MIC P. aurginosa ATCC 29248: >40 µM
K. pneumoniae ATCC 10031; Example 110
  MIC K. pneumoniae ATCC 10031: 5 to 10 µM
P. vulgaris ATCC 8427; Example 110
  MIC P. vulgaris ATCC 8427: 20 to 40 µM
[1]; Example 110
  MIC A. baumannii WReed 2: 20 to 40 µM

## NCC1OC(OC2C(CO)OC(OC3C(O)C(N)CC(N)C3OC3OC(CO)C(O)C(O)C3N)C2OCCN(CCCc2ccccc2)CCc2ccccc2)C(N)C(O)C1O (stereo not shown) [Compound 9ag]
E. coli ATCC 25922; Example 110
  MIC E. coli ATCC 25922: 10 to 20 µM
S. aureus ATCC 13709; Example 110
  MIC S. aureus ATCC 13709: 0.6 to 1.2 µM
P. aurginosa ATCC 25416; Example 110
  MIC P. aurginosa ATCC 25416: 10 to 20 µM
P. aurginosa ATCC 29248; Example 110
  MIC P. aurginosa ATCC 29248: >40 µM
K. pneumoniae ATCC 10031; Example 110
  MIC K. pneumoniae ATCC 10031: 2.5 to 5 µM
P. vulgaris ATCC 8427; Example 110
  MIC P. vulgaris ATCC 8427: 10 to 20 µM
[1]; Example 110
  MIC A. baumannii WReed 2: 10 to 20 µM

## COc1ccc(CCNCCOC2C(OC3C(O)C(N)CC(N)C3OC3OC(CO)C(O)C(O)C3N)OC(CO)C2OC2OC(CN)C(O)C(O)C2N)cc1 (stereo not shown) [Compound 9aj]
E. coli ATCC 25922; Example 110
  MIC E. coli ATCC 25922: 5 to 10 µM
S. aureus ATCC 13709; Example 110
  MIC S. aureus ATCC 13709: <0.6 µM
P. aurginosa ATCC 25416; Example 110
  MIC P. aurginosa ATCC 25416: >40 µM
P. aurginosa ATCC 29248; Example 110
  MIC P. aurginosa ATCC 29248: >40 µM
K. pneumoniae ATCC 10031; Example 110
  MIC K. pneumoniae ATCC 10031: 1.3 to 2.5 µM
P. vulgaris ATCC 8427; Example 110
  MIC P. vulgaris ATCC 8427: 5 to 10 µM
[1]; Example 110
  MIC A. baumannii WReed 2: 2.5-5^ uM

## CN(C)CC1OC(OC2C(N)CC(N)C(O)C2OC2OC(CO)C(OC3OC(CN)C(O)C(O)C3N)C2O)C(N)C(O)C1O (stereo not shown) [Compound 15a]
[2]
  Kd: 0.7 µM
[3]
  Kd: 0.6 µM
[4]
  IC50: 0.3 µM
E. Coli; Example 108
  MIC E. Coli.: 3 to 6 µM
S. Aureus; Example 108
  MIC S. Aureus: 2 to 3 µM
[5]; 0.5 mg/kg subcutaneously
  # Dead mice/Total mice in group: 8/10
[5]; 1 mg/kg subcutaneously
  # Dead mice/Total mice in group: 7/10
[5]; 2 mg/kg subcutaneously
  # Dead mice/Total mice in group: 7/10
[5]; 4.5 mg/kg subcutaneously
  # Dead mice/Total mice in group: 1/10
[5]; 9 mg/kg subcutaneously
  # Dead mice/Total mice in group: 0/10
[5]; 18 mg/kg subcutaneously
  # Dead mice/Total mice in group: 0/10
[5]; 37 mg/kg subcutaneously
  # Dead mice/Total mice in group: 0/10
[5]; 75 mg/kg subcutaneously one and 3 hour after infection, intraperitoneal
  # Dead mice/Total mice in group: 0/10

## NCC1OC(OC2C(CO)OC(OC3C(O)C(N)CC(N)C3OC3OC(CNCCCc4ccccc4)C(O)C(O)C3N)C2O)C(N)C(O)C1O (stereo not shown) [Compound 15l]
E. Coli; Example 109
  MIC E. Coli.: 0.6 to 1.2 µM
S. Aureus; Example 109
  MIC S. Aureus: 0.3 to 0.6 µM
E. coli ATCC 25922; Example 111
  MIC E. coli ATCC 25922: 1.3 to 2.5 µM
S. aureus ATCC 13709; Example 111
  MIC S. aureus ATCC 13709: 0.2 to 0.3 µM
P. aurginosa ATCC 25416; Example 111
  MIC P. aurginosa ATCC 25416: >40 µM
P. aurginosa ATCC 29248; Example 111
  MIC P. aurginosa ATCC 29248: >40 µM
K. pneumoniae ATCC 10031; Example 111
  MIC K. pneumoniae ATCC 10031: 0.6 to 1.3 µM
P. vulgaris ATCC 8427; Example 111
  MIC P. vulgaris ATCC 8427: >40 µM
[1]; Example 111
  MIC A. baumannii WReed 2: 10 to 20 µM

Source: patent US8569264B2, “Antibacterial 4,5-substituted aminoglycoside analogs having multiple substituents” (ISIS Pharmaceuticals, Inc., priority 2005, dated 2013)
